The record followed here is ChEMBL document CHEMBL3044943, “Nematicidal prenylated flavanones from Phyllanthus niruri” (2008).

In brackets after ≈: the same amount, converted by molar mass.

One test relates to Meloidogyne incognita. In words: Nematicidal activity against Meloidogyne incognita (root-knot nematode) second stage juveniles after 72 hr. Type of test: functional.
In another test the test system is Rotylenchulus reniformis. In words: Nematicidal activity against Rotylenchulus reniformis (reniform nematode) after 72 hr. Type of test: functional.

Take `CC(C)=CCc1cccc2c1OC(c1ccc(O)cc1)CC2=O` (stereo not given): the LC50 (usually the concentration lethal to half of the exposed cells or organisms) in the test on Meloidogyne incognita amounted to 14.5 µg/mL (≈ 47 µM); in the test on Rotylenchulus reniformis, 3.3 µg/mL (≈ 10.7 µM).
For `CC(C)=CCc1cccc2c1OC(c1ccccc1)CC2=O` (stereo not given) the same measures were 70.9 µg/mL (≈ 242 µM) and 103 µg/mL (≈ 352 µM).
`CNC(=O)Oc1cccc2c1OC(C)(C)C2` [CARBOFURAN]: the LC50 in the test with Rotylenchulus reniformis was 3.1 µg/mL (≈ 14 µM).
